Data taken from patent US8852656B2, “Sleep improvement composition” (Taiyokagaku Co., Ltd., priority 2004, dated 2014).

What was measured:
rat = conditions: administered to a rat; cited from earlier work
[1] = reported, Patent Document 1; cited from earlier work
mice = type: in vivo; conditions: oral administration of 5 g/kg
From the text: In particular, theanine is known as a “umami” component of tea, is used as a food additive for providing flavor, and the Food Sanitation Law places no restrictions in addition amount.

CC/C=C\C/C=C\C/C=C\C/C=C\C/C=C\C/C=C\CCC(=O)O[C@H](COC(=O)CCCCCCC/C=C\CCCCCCCC)COP(=O)([O-])OCC[N+](C)(C)C [1-oleoyl-2-DHA-sn-3-phosphocholine]
Effect on sleep (rat): the total sleeping time within 24 hours, the REM sleeping time, and the REM sleeping time with respect to the total sleeping time are increased

C[C@@H]1CC[C@H]2C(C)(C)[C@H]3C[C@@]12CC[C@@]3(C)O [cedrol]
Effect on sleep [1]: elongate the total sleeping time, shorten the sleep latency time, and increase the sleep efficiency

CCNC(=O)CC[C@H](N)C(=O)O [theanine]
Death in acute toxicity test (mice): no cases of death
